Consider ten molecules from PubChem BioAssay (NCI).

Holding throughout (assay): DTP human tumour cell line panel, 48 h
The test system of test [1] is A498 renal.
In test [2] the test system is A549 NSCLC.
In test [3] the test system is HCT-15 colon.
Test [4] has as its system LOX IMVI melanoma.
The test system of test [5] is MCF7 breast.
The subject of test [6] is MDA-MB-231 breast.
Test [7] deals with OVCAR-3 ovarian.
Test [8] deals with PC-3 prostate.
Test [9] deals with RXF 393 renal.
Test [10] concerns T-47D breast.

Molecules are shown by their SMILES.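 Protocol summary: plate cells (96-well), add compound at 5 concentrations, incubate 48 h, interpolate endpoints linearly. GI50 = concentration required for 50% inhibition of growth. TGI is the concentration that stops growth completely.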

In general, TGI refers to the concentration at which net growth stops. The low end stands for greater sensitivity of the cells, the high end for lower sensitivity of the cells. A word on the GI50: it is the concentration giving 50% growth inhibition.

For `O=C1CS/C(=N/N=C/c2cn(Cc3ccc(Cl)cc3Cl)c3ccccc23)N1`, the TGI in test [1] is 46.5 µM; in test [2] it was greater than 100 µM; in test [3], greater than 100 µM; in [4], greater than 100 µM; in test [5], 61.6 µM; in [6] it was 48 µM. In addition, the TGI in test [7] is greater than 100 µM; in test [8], 76.8 µM; in test [9] it was 77.2 µM; in test [10] it was greater than 100 µM.

As to `O=C1CC(c2ccccc2Cl)C2(C(=O)NC(=O)NC2=O)C(c2ccccc2Cl)C1` (stereo not given), the concentration for total growth inhibition (TGI) in test [1], in test [2], in test [3], in [4], in test [5] and in [6] was greater than 100 µM each time. Besides, the TGI in [7] is greater than 100 µM; in test [8] it was greater than 100 µM; in test [9], 85.2 µM; in [10], 78.2 µM.

Regarding `Cc1cc(OCc2nnc3sc(NC(=O)c4ccccc4)nn23)ccc1Cl`, the total growth inhibition concentration (TGI) in test [1] is greater than 100 µM; in [2] it was greater than 100 µM; in test [3], greater than 100 µM; in test [4] it was 78.7 µM; in [5], greater than 100 µM; in test [6], greater than 100 µM. For the same molecule, the concentration for total growth inhibition (TGI) in [7] was greater than 100 µM; in test [8], greater than 100 µM; in [9], 83.3 µM; in test [10] it was greater than 100 µM.

With `CC1(C)N=C(N)N=C(N)N1c1cccc(OCc2cccc(N)c2)c1`, the TGI in test [1], in [2], in test [3], in [4], in test [5] and in test [6] was greater than 100 µM in each case. Moreover, the TGI in [7], in test [8], in [9] and in test [10] was greater than 100 µM each time.

`CCN(CCCCCCCCCCN1CC(=O)N(CCCCCCCCCCN(CC)Cc2ccccc2OC)CC1=O)Cc1ccccc1OC`: the GI50 was 1.09 µM in [1]; 1.65 µM in test [2]; 1.55 µM in [3]; 0.587 µM in test [4]; 1.2 µM in [5]; 1.56 µM in test [6]. The GI50 was 1.18 µM in test [7], 1.14 µM in [8], 0.646 µM in test [9] and 1.99 µM in test [10]. Besides, the TGI in test [1] amounted to 2.94 µM; in test [2] it was 4.54 µM; in test [3], 5.34 µM; in [4], 1.93 µM; in test [5] it was 2.81 µM; in test [6], 3.61 µM. Moreover, the TGI turned out to be 2.48 µM in [7], 2.59 µM in [8], 1.93 µM in [9] and 6.33 µM in test [10].

With `Cc1cn(CCCCCOC(=O)NC(CCCNC(N)=O)C(=O)O)c(=O)[nH]c1=O` (stereo not given), the TGI in test [1], in test [2], in [3], in test [4], in [5] and in test [6] was greater than 100 µM throughout. Moreover, the TGI in [7], in test [8], in test [9] and in [10] was greater than 100 µM each time.

As for `O=C(OC12CC3CC(CC(C3)C1)C2)c1ccc(NCc2cc(O)ccc2O)cc1`, the concentration for total growth inhibition (TGI) was 4.98 µM in test [1]; 16.5 µM in test [2]; 2.29 µM in test [3]; 8.94 µM in test [4]; 8.54 µM in test [5]; 5.87 µM in [6]. Further, the TGI in [7] is 2.3 µM; in [8] it was 3.37 µM; in test [9] it was 1.02 µM; in [10], 1.04 µM.

For the molecule `CN(C)CCCNc1cc(O)c2c(c1O)C(=O)c1ccccc1C2=O`, the TGI was 37 µM in [1]; 23.9 µM in [2]; 21 µM in [3]; 24.8 µM in test [4]; 35.9 µM in test [5]; 27.6 µM in [6]. In addition, the TGI in test [7] was 23.5 µM; in test [8], 27.5 µM; in [9], 17 µM; in test [10] it was 36.5 µM.

With `C[n+]1c(-c2ccc(NC(=O)c3ccc(C(=O)Nc4ccc(-c5cn6ccccc6[n+]5C)cc4)cc3)cc2)cn2ccccc21`, the TGI in test [1] was greater than 94.9 µM; in [2] it was greater than 100 µM; in test [3], greater than 100 µM; in test [4] it was greater than 100 µM; in [5], greater than 100 µM; in test [6] it was greater than 100 µM. For the same molecule, the TGI in test [7], in test [8], in test [9] and in [10] was greater than 100 µM each time.

As for `COc1ccc(OC/C(N=Cc2ccncc2)=N/NC(=O)c2ccncc2)cc1`, the TGI in test [1], in [2], in test [3], in [4], in test [5] and in test [6] was greater than 100 µM each time. The TGI in [7], in [8], in test [9] and in test [10] was greater than 100 µM each time.
